Test results reported in the NIST ThermoML archive (doi:10.1016/j.jct.2012.01.007).
Values joined by “and” are separate entries in the source; they are usually repeats but may differ in a detail not shown here. Identical values can stand only once. Numbers after ± are expanded uncertainties.

Assay: osmotic coefficient (dimensionless); mn = molality of the nth substance listed, in mol/kg
Settings: 298.15 K, Liquid, isopiestic method

CCCC[n+]1ccc(N(C)C)cc1.F[B-](F)(F)F [4-(dimethylamino)-1-butylpyridinium tetrafluoroborate] + CCO
Settings | osmotic coefficient
m1 = 0 | 1 ± 0.15
m1 = 0.3225 | 0.606 ± 0.096
m1 = 0.333 | 0.526 ± 0.085
m1 = 0.3357 | 0.6 ± 0.095
m1 = 0.3459 | 0.506 ± 0.083
m1 = 0.4422 | 0.468 ± 0.073
m1 = 0.4806 | 0.429 and 0.445
m1 = 0.4942 | 0.418 ± 0.067
m1 = 0.5101 | 0.42 and 0.404
m1 = 0.6548 | 0.383 ± 0.061
m1 = 0.7459 | 0.394 ± 0.063
m1 = 0.8064 | 0.365 ± 0.059
m1 = 0.9658 | 0.343 ± 0.057
m1 = 1.075 | 0.327 ± 0.055
m1 = 1.154 | 0.339 ± 0.056
m1 = 1.195 | 0.318 ± 0.053
m1 = 1.289 | 0.325 ± 0.054
m1 = 1.393 | 0.322 ± 0.054
m1 = 1.613 | 0.321 ± 0.054
m1 = 1.945 | 0.304 ± 0.052
m1 = 2.716 | 0.316 ± 0.053
m1 = 3.676 | 0.336 ± 0.056
m1 = 3.763 | 0.326 ± 0.055
m1 = 5.468 | 0.283 ± 0.05
m1 = 7.248 | 0.218 ± 0.043

CCCCCC[n+]1ccc(N(C)C)cc1.F[B-](F)(F)F [4-(dimethylamino)-1-hexylpyridinium tetrafluoroborate] + CCO
Settings | osmotic coefficient
m1 = 0 | 0.999 ± 0.15
m1 = 0.3863 | 0.523 ± 0.081
m1 = 0.4915 | 0.435 ± 0.068
m1 = 0.6139 | 0.417 ± 0.066
m1 = 0.7149 | 0.447 ± 0.07
m1 = 0.7716 | 0.429 ± 0.068
m1 = 1.225 | 0.413 and 0.431
m1 = 1.39 | 0.375 ± 0.06
m1 = 1.495 | 0.39 ± 0.062
m1 = 1.778 | 0.35 ± 0.11
m1 = 1.799 | 0.409 ± 0.12
m1 = 2.283 | 0.376 ± 0.061
m1 = 2.753 | 0.378 ± 0.061
m1 = 3.718 | 0.351 ± 0.057
m1 = 4.128 | 0.37 ± 0.06
m1 = 5.581 | 0.384 ± 0.062

CCCCC[n+]1ccc(N(C)C)cc1.F[B-](F)(F)F [4-(dimethylamino)-1-pentylpyridinium tetrafluoroborate] + CCO
Settings | osmotic coefficient
m1 = 0 | 0.999 ± 0.15
m1 = 0.4148 | 0.513 ± 0.079
m1 = 0.4808 | 0.455 ± 0.071
m1 = 0.5469 | 0.468 ± 0.073
m1 = 0.568 | 0.397 ± 0.074
m1 = 0.6869 | 0.376 ± 0.061
m1 = 0.8468 | 0.359 ± 0.058
m1 = 0.9582 | 0.335 ± 0.055
m1 = 1.291 | 0.38 ± 0.061
m1 = 1.757 | 0.331 ± 0.055
m1 = 1.899 | 0.327 ± 0.055
m1 = 2.515 | 0.327 ± 0.055
m1 = 4.304 | 0.283 ± 0.049
m1 = 5.313 | 0.288 ± 0.05
m1 = 7.334 | 0.301 ± 0.051
